In paper PMC6270420, “Antibacterial Activity of Salicylanilide 4-(Trifluoromethyl)benzoates” (Molecules, 2013):
Values after ≈ are worked out from the molar mass of the structure shown. Like-named read-outs stand apart in the source and are kept apart here.

How the values were obtained:
Format in all cases: cell-based
[1] = test system: Enterococcus sp. J 14365/08; assay: Antibacterial microdilution broth method; conditions: read-out: MIC/IC90 Enterococcus sp. J 14365/08
Protocol: (§1) The in vitro antibacterial activity was assayed against eight Gram-positive and Gram-negative strains: Staphylococcus aureus CCM 4516/08, methicillin-resistant Staphylococcus aureus H 5996/08 (MRSA), Staphylococcus epidermidis H 6966/08, Enterococcus sp. J 14365/08; Escherichia coli CCM 4517, Klebsiella pneumoniae D 11750/08, ESBL-positive Klebsiella pneumoniae J 14368/08, and Pseudomonas aeruginosa CCM 1961.
(§2) The microdilution broth method modified according to standard M07-A07 in Mueller-Hinton broth (HiMedia Laboratories, Mumbai, India) adjusted to pH 7.4 (±0.2) was used. The tested compounds were dissolved in DMSO to the final concentrations ranging from […]. Benzylpenicillin (penicillin G) was used as a comparative drug. Bacterial inoculum in sterile water was prepared to match 0.5 McFarland scale ([…]). The minimum inhibitory concentrations were assayed as 90% (IC90) or higher reduction of growth when compared to the control. The determination of results was performed visually and spectrophotometrically (at 540 nm). The values of MICs were determined after 24 and 48 h of incubation in the darkness at 35 °C (±0.1) in a humid atmosphere.

[2] = test system: Escherichia coli CCM 4517; assay: Antibacterial microdilution broth method; conditions: read-out: MIC/IC90 E. coli CCM 4517
Protocol: as §1, §2

[3] = test system: Staphylococcus aureus CCM 4516/08; assay: Antibacterial microdilution broth method; conditions: read-out: MIC/IC90 S. aureus CCM 4516/08
Protocol: as §1, §2

[4] = test system: Staphylococcus epidermidis H 6966/08; assay: Antibacterial microdilution broth method; conditions: read-out: MIC/IC90 S. epidermidis H 6966/08
Protocol: as §1, §2

[5] = test system: methicillin-resistant Staphylococcus aureus H 5996/08 (MRSA); assay: Antibacterial microdilution broth method; conditions: read-out: MIC/IC90 MRSA H 5996/08
Protocol: as §1, §2

[6] = test system: Gram-positive cocci including MRSA; assay: Antibacterial microdilution, summary for Gram-positive cocci; conditions: Staphylococcus aureus, read-out: MICs against Gram-positive cocci
Protocol: as §1, §2

[7] = test system: Mycobacterium tuberculosis, M. avium and M. kansasii; assay: Antimycobacterial MIC, summary over all mycobacterial strains; conditions: range over all strains and times; read-out: MICs against all mycobacterial strains

Compound	MIC ([1]; SP.J14365/08, 24 h)	MIC ([1]; SP.J14365/08, 48 h)	MIC ([2]; CCM4517, 24 h)	MIC ([2]; CCM4517, 48 h)	MIC ([3]; CCM4516, 24 h)	MIC ([3]; CCM4516, 48 h)	MIC ([4]; H6966/08, 24 h)	MIC ([4]; H6966/08, 48 h)	MIC ([5]; 24 h)	MIC ([5]; 48 h)	MIC [6]	MIC [7]
O=C(Oc1ccc(Cl)cc1C(=O)Nc1ccc(Cl)c(Cl)c1)c1ccc(C(F)(F)F)cc1 [1e]	0.49 µM (≈ 0.239 µg/mL)	3.9 µM (≈ 1.91 µg/mL)	> 500 µM	> 500 µM	0.49 µM (≈ 0.239 µg/mL)	0.98 µM (≈ 0.479 µg/mL)	0.49 µM (≈ 0.239 µg/mL)	0.98 µM (≈ 0.479 µg/mL)	0.49 µM (≈ 0.239 µg/mL)	0.98 µM (≈ 0.479 µg/mL)	< 1 µM	–
O=C(Oc1cc(Cl)ccc1C(=O)Nc1ccc(Br)cc1)c1ccc(C(F)(F)F)cc1 [1j]	1.95 µM (≈ 0.972 µg/mL)	7.81 µM (≈ 3.89 µg/mL)	250 µM (≈ 125 µg/mL)	> 250 µM	0.49 µM (≈ 0.244 µg/mL)	0.98 µM (≈ 0.489 µg/mL)	0.49 µM (≈ 0.244 µg/mL)	0.98 µM (≈ 0.489 µg/mL)	0.49 µM (≈ 0.244 µg/mL)	0.98 µM (≈ 0.489 µg/mL)	< 1 µM	–
O=C(Oc1ccc(Cl)cc1C(=O)Nc1ccc(C(F)(F)F)cc1)c1ccc(C(F)(F)F)cc1 [1o, 4-chloro-2-[4-(trifluoromethyl)phenylcarbamoyl]phenyl 4-(trifluoromethyl)benzoate]	7.81 µM (≈ 3.81 µg/mL)	62.5 µM (≈ 30.5 µg/mL)	> 125 µM	> 125 µM	3.9 µM (≈ 1.9 µg/mL)	7.81 µM (≈ 3.81 µg/mL)	3.9 µM (≈ 1.9 µg/mL)	7.81 µM (≈ 3.81 µg/mL)	3.9 µM (≈ 1.9 µg/mL)	7.81 µM (≈ 3.81 µg/mL)	–	1 to 4 µM (≈ 0.488 to 1.95 µg/mL)
